The values below come from US10689377B2 (Mirati Therapeutics, Inc., priority 2017, dated 2020).

Each structure is given as a SMILES string. Structures can show the parent of a compound that is named as a salt.

This test deals with KRas G12C (Homo sapiens, UniProt P01116, G12C). As to the kind of experiment: Cellular inhibition of KRas G12C measured by Phospho-ERK in NCI-H358 cells. The settings on record: pERK(Thr202/Tyr204) normalized with GAPDH, NCI-H358 cells, 3 hours; read-out: IC50. The class given is cell-based. The procedure, abridged: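 Following 8-12 h attachment, NCI-H358 cells got serially diluted compound (0.5% DMSO) for 3 hours. Cells were then fixed, permeabilized with cold methanol, and stained for pERK(Thr202/Tyr204) and GAPDH. Ratios were converted to percent of DMSO control, with IC50 obtained by four-parameter regression.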
KRas G12C, sequence (P01116 1-188 isoform P01116-2 G12C): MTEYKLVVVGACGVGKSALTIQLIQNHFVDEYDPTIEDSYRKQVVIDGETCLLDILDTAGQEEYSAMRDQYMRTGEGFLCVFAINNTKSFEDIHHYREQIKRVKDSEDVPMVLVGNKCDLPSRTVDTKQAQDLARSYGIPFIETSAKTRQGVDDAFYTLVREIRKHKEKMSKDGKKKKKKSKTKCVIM
With `C=CC(=O)N1CCN(c2nc(OC[C@@H]3CCCN3C)nc3c2CCN(c2cccc4cnccc24)C3)CC1CC#N` (stereo partly drawn) [Example 292, 2-[4-[7-(5-isoquinolyl)-2-[[(2S)-1-methylpyrrolidin-2-yl]methoxy]-6,8-dihydro-5H-pyrido[3,4-d]pyrimidin-4-yl]-1-prop-2-enoyl-piperazin-2-yl]acetonitrile], the IC50 is above 1000 nM.

Turning to `C=CC(=O)N1CCN(c2nc(OC[C@@H]3COCCN3C)nc3c2CCN(c2cccc4ccccc24)C3)CC1CC#N` (stereo partly drawn) [Example 272, 2-(1-acryloyl-4-(2-(((S)-4-methylmorpholin-3-yl)methoxy)-7-(naphthalen-1-yl)-5,6,7,8-tetrahydropyrido[3,4-d]pyrimidin-4-yl)piperazin-2-yl)acetonitrile], the concentration for half-maximal inhibition (IC50) fell in the range of 0.1 to 1000 nM.

`C=CC(=O)N1CCN(c2nc(OC[C@@H]3CCCN3C)nc3c2CCN(c2cccc(C)c2Cl)C3)C[C@@H]1CC#N` [Example 425, 2-((S)-1-acryloyl-4-(7-(2-chloro-3-methylphenyl)-2-(((S)-1-methylpyrrolidin-2-yl)methoxy)-5,6,7,8-tetrahydropyrido[3,4-d]pyrimidin-4-yl)piperazin-2-yl)acetonitrile]: the IC50 was 0.1 to 1000 nM.

For the molecule `C=CC(=O)N1CCN(c2nc(O[C@H](C)CN3CCCCC3)nc3c2CCN(c2cc(O)cc4ccccc24)C3)CC1` [Example 75, (R)-1-(4-(7-(3-hydroxynaphthalen-1-yl)-2-((1-(piperidin-1-yl)propan-2-yl)oxy)-5,6,7,8-tetrahydropyrido[3,4-d]pyrimidin-4-yl)piperazin-1-yl)prop-2-en-1-one], the IC50 lay within 0.1 to 1000 nM.

Regarding `C=CC(=O)N1CC2(C1)CN(c1nc(OCCN(C)C)nc3c1CCN(c1cc(O)cc4ccccc14)C3)C2` [Example 16, 1-(6-(2-(2-(dimethylamino)ethoxy)-7-(3-hydroxynaphthalen-1-yl)-5,6,7,8-tetrahydropyrido[3,4-d]pyrimidin-4-yl)-2,6-diazaspiro[3.3]heptan-2-yl)prop-2-en-1-one], the 50% inhibitory concentration (IC50) is above 1000 nM.

Regarding `C=CC(=O)N1CCN(c2nc(OC[C@@H]3CCCN3CC)nc3c2CCN(c2cc(O)cc4ccccc24)C3)CC1` [Example 197, (S)-1-(4-(2-((1-ethylpyrrolidin-2-yl)methoxy)-7-(3-hydroxynaphthalen-1-yl)-5,6,7,8-tetrahydropyrido[3,4-d]pyrimidin-4-yl)piperazin-1-yl)prop-2-en-1-one], the 50% inhibitory concentration (IC50) lay in the range of 0.1 to 1000 nM.

Consider `C=CC(=O)N1CCN(c2nc(OCCN(C)C)nc3c2CC(C)N(c2cc(O)cc4ccccc24)C3)CC1` (stereo not drawn) [Example 48, 1-(4-(2-(2-(dimethylamino)ethoxy)-7-(3-hydroxynaphthalen-1-yl)-6-methyl-5,6,7,8-tetrahydropyrido[3,4-d]pyrimidin-4-yl)piperazin-1-yl)prop-2-en-1-one trifluoroacetate], for which the IC50 is above 1000 nM.

Consider `C=CC(=O)N1CCN(c2nc(OC[C@]3(C)CCCN3C)nc3c2CCN(c2cccc4ccccc24)C3)CC1CC#N` (stereo partly drawn) [Example 395, 2-(1-acryloyl-4-(2-(((S)-1,2-dimethylpyrrolidin-2-yl)methoxy)-7-(naphthalen-1-yl)-5,6,7,8-tetrahydropyrido[3,4-d]pyrimidin-4-yl)piperazin-2-yl)acetonitrile], for which the IC50 fell in the range of 0.1 to 1000 nM.

Regarding `C=CC(=O)N1CCN(c2nc(OC[C@H]3CCCN3C)nc3c2CCN(c2cc(O)cc4ccccc24)C3)CC1CC#N` (stereo partly drawn) [Example 178, 2-[4-[7-(3-hydroxy-1-naphthyl)-2-[[(2R)-1-methylpyrrolidin-2-yl]methoxy]-6,8-dihydro-5H-pyrido[3,4-d]pyrimidin-4-yl]-1-prop-2-enoyl-piperazin-2-yl]acetonitrile], the IC50 was 0.1 to 1000 nM.

On to `C=CC(=O)N1[C@H](C)CN(c2nc(OCCCN3CCOCC3)nc3c2CCN(c2cc(O)cc4ccccc24)C3)C[C@@H]1C` [Example 191, 1-((2S,6R)-4-(7-(3-hydroxynaphthalen-1-yl)-2-(3-morpholinopropoxy)-5,6,7,8-tetrahydropyrido[3,4-d]pyrimidin-4-yl)-2,6-dimethylpiperazin-1-yl)prop-2-en-1-one], for which the half-inhibitory concentration (IC50) was above 1000 nM.

Regarding `C=CC(=O)N1CCN(c2nc(OC[C@@H]3C[C@H](F)CN3C)nc3c2CCN(c2cccc4ccccc24)C3)CC1CC#N` (stereo partly drawn) [Example 221, 2-(1-acryloyl-4-(2-(((2S,4S)-4-fluoro-1-methylpyrrolidin-2-yl)methoxy)-7-(naphthalen-1-yl)-5,6,7,8-tetrahydropyrido[3,4-d]pyrimidin-4-yl)piperazin-2-yl)acetonitrile], the IC50 fell in the range of 0.1 to 1000 nM.

`C=CC(=O)N1CCN(c2nc(OCCN3CCCCC3)nc3c2CCN(c2cc(O)cc4ccccc24)C3)CC1` [Example 52, 1-[4-[7-(3-hydroxy-1-naphthyl)-2-[2-(1-piperidyl)ethoxy]-6,8-dihydro-5H-pyrido[3,4-d]pyrimidin-4-yl]piperazin-1-yl]prop-2-en-1-one]: the 50% inhibitory concentration (IC50) is 0.1 to 1000 nM.

Take `C=CC(=O)N1CCN(c2nc(OC[C@@H]3CCCN3C)nc3c2CCN(c2cccc4ccc(OC)cc24)C3)CC1CC#N` (stereo partly drawn) [Example 255, 2-[4-[7-(7-methoxy-1-naphthyl)-2-[[(2S)-1-methylpyrrolidin-2-yl]methoxy]-6,8-dihydro-5H-pyrido[3,4-d]pyrimidin-4-yl]-1-prop-2-enoyl-piperazin-2-yl]acetonitrile]: the 50% inhibitory concentration (IC50) is above 1000 nM.

For the molecule `Cc1cccc2cccc(N3CCc4c(nc(OC[C@@H]5CCCN5C)nc4N4CCN(C(=O)/C=C/C(N)=O)[C@@H](CC#N)C4)C3)c12` [Example 500, (E)-4-((S)-2-(cyanomethyl)-4-(7-(8-methylnaphthalen-1-yl)-2-(((S)-1-methylpyrrolidin-2-yl)methoxy)-5,6,7,8-tetrahydropyrido[3,4-d]pyrimidin-4-yl)piperazin-1-yl)-4-oxobut-2-enamide], the half-maximal inhibitory concentration (IC50) lay in the range of 0.1 to 1000 nM.

For the molecule `C/C=C/C(=O)N1CCN(c2nc(OC[C@@H]3CCCN3C)nc3c2CCN(c2cccc4ccccc24)C3)CC1CC#N` (stereo partly drawn) [Example 263, 2-[1-[(E)-but-2-enoyl]-4-[2-[[(2S)-1-methylpyrrolidin-2-yl]methoxy]-7-(1-naphthyl)-6,8-dihydro-5H-pyrido[3,4-d]pyrimidin-4-yl]piperazin-2-yl]acetonitrile], the 50% inhibitory concentration (IC50) was 0.1 to 1000 nM.

Consider `C=CC(=O)N1CCN(c2nc(OC[C@@H]3CCCN3C)nc3c2CCN(c2cncc(F)c2C(F)(F)F)C3)C[C@@H]1CC#N` [Example 383, 2-((S)-1-acryloyl-4-(7-(5-fluoro-4-(trifluoromethyl)pyridin-3-yl)-2-(((S)-1-methylpyrrolidin-2-yl)methoxy)-5,6,7,8-tetrahydropyrido[3,4-d]pyrimidin-4-yl)piperazin-2-yl)acetonitrile], for which the IC50 fell in the range of 0.1 to 1000 nM.

Consider `C=CC(=O)N1CCN(c2nc(OCCN3C[C@@H]4CC[C@H]3C4)nc3c2CCN(c2cc(O)cc4ccccc24)C3)CC1` [Example 77, 1-(4-(2-(2-((1S,4R)-2-azabicyclo[2.2.1]heptan-2-yl)ethoxy)-7-(3-hydroxynaphthalen-1-yl)-5,6,7,8-tetrahydropyrido[3,4-d]pyrimidin-4-yl)piperazin-1-yl)prop-2-en-1-one], for which the IC50 is 0.1 to 1000 nM.

Regarding `C=CC(=O)N1CCN(c2nc(OC[C@@H]3CCCN3C)nc3c2CCN(c2cnccc2C(F)(F)F)C3)CC1CC#N` (stereo partly drawn) [Example 212, 2-(1-acryloyl-4-(2-(((S)-1-methylpyrrolidin-2-yl)methoxy)-7-(4-(trifluoromethyl)pyridin-3-yl)-5,6,7,8-tetrahydropyrido[3,4-d]pyrimidin-4-yl)piperazin-2-yl)acetonitrile], the half-maximal inhibitory concentration (IC50) lay in the range of 0.1 to 1000 nM.

Regarding `C=CC(=O)N1CCN(c2nc(OCCCN3CCOCC3)nc3c2CCN(c2cccc4cccc(C)c24)C3)C[C@@H]1CC#N` [Example 370, (S)-2-(1-acryloyl-4-(7-(8-methylnaphthalen-1-yl)-2-(3-morpholinopropoxy)-5,6,7,8-tetrahydropyrido[3,4-d]pyrimidin-4-yl)piperazin-2-yl)acetonitrile], the concentration for half-maximal inhibition (IC50) is 0.1 to 1000 nM.

Take `C/C=C/C(=O)N1CCN(c2nc(OC[C@@H]3CCCN3C)nc3c2CCN(c2cccc4ccccc24)C3)CC1CC#N` (stereo partly drawn) [Example 293, 2-[1-[(E)-but-2-enoyl]-4-[2-[[(2S)-1-methylpyrrolidin-2-yl]methoxy]-7-(1-naphthyl)-6,8-dihydro-5H-pyrido[3,4-d]pyrimidin-4-yl]piperazin-2-yl]acetonitrile]: the IC50 was 0.1 to 1000 nM.

Take `C=CC(=O)N1CCN(c2nc(OC[C@@H]3CCCN3C)nc3c2CCN(c2ccccc2CC(F)(F)F)C3)CC1CC#N` (stereo partly drawn) [Example 374, 2-(1-acryloyl-4-(2-(((S)-1-methylpyrrolidin-2-yl)methoxy)-7-(2-(2,2,2-trifluoroethyl)phenyl)-5,6,7,8-tetrahydropyrido[3,4-d]pyrimidin-4-yl)piperazin-2-yl)acetonitrile]: the concentration for half-maximal inhibition (IC50) is above 1000 nM.

Take `C=CC(=O)N1CCN(c2nc(OCCN3CCCC(F)(F)C3)nc3c2CCN(c2cccc4cccc(Cl)c24)C3)C[C@@H]1CC#N` [Example 455, 2-[(2S)-4-[7-(8-chloro-1-naphthyl)-2-[2-(3,3-difluoro-1-piperidyl)ethoxy]-6,8-dihydro-5H-pyrido[3,4-d]pyrimidin-4-yl]-1-prop-2-enoyl-piperazin-2-yl]acetonitrile]: the IC50 lay within 0.1 to 1000 nM.

As for `C=CC(=O)N1CCN(c2nc(OC[C@@H]3CCCN3C)nc3c2CCN(c2c(C)c(C)cc4[nH]ccc24)C3)CC1` [Example 457, 1-[4-[7-(5,6-dimethyl-1H-indol-4-yl)-2-[[(2S)-1-methylpyrrolidin-2-yl]methoxy]-6,8-dihydro-5H-pyrido[3,4-d]pyrimidin-4-yl]piperazin-1-yl]prop-2-en-1-one], the IC50 lay in the range of 0.1 to 1000 nM.

Turning to `C=CC(=O)N1CCN(c2nc(OC[C@H]3C[C@H](F)CN3C)nc3c2CCN(c2cccc(F)c2C(F)(F)F)C3)CC1CC#N` (stereo partly drawn) [Example 417, 2-(1-acryloyl-4-(2-(((2R,4S)-4-fluoro-1-methylpyrrolidin-2-yl)methoxy)-7-(3-fluoro-2-(trifluoromethyl)phenyl)-5,6,7,8-tetrahydropyrido[3,4-d]pyrimidin-4-yl)piperazin-2-yl)acetonitrile], the IC50 was in the range of 0.1 to 1000 nM.
